Laboratory results reported in publication PMC11881906, “Development of xanthone derivatives as effective broad-spectrum antimicrobials: Disrupting cell wall and inhibiting DNA synthesis” (Science Advances, 2025).
Converted amounts (≈) assume the structure as drawn.

Assays:
[1] = molecular target: T1, topoisomerase IV from E. coli (Escherichia coli, UniProt P0AFI2+P20083); experiment: Topoisomerase IV decatenation inhibition assay; assay type: biochemical; conditions: 1× MIC
T1 construct: purchased ProFoldin (Worcester, MA)
Procedure: (§1) E. coli topoisomerase enzymes (II and IV) were supplied by ProFoldin (Worcester, MA), and assays were performed according to the manufacturer’s instructions. Briefly, the DNA supercoiling assay was conducted in a volume of 40 μl containing 24 μl of H2O, 4 μl of 10× buffer, 4 μl of 10× relaxed DNA, 4 μl of 10× enzyme, and 4 μl of 10 mM adenosine triphosphate (ATP). Following a 60-min incubation at room temperature, 200 μl of H2O was added to each reaction mixture. Topoisomerase IV decatenation inhibition assay was conducted in a volume of 50 μl containing 38.5 μl of H2O, 5 μl of 10× buffer, 5 μl of 10× concatenated DNA, 0.5 μl of 100× enzyme, and 1 μl of 10 mM ATP. After 60 min of incubation at 37°C, 5 μl of 0.4 M EDTA was added to stop the reaction. […]
(§2) In the supercoiling inhibition assay, the fluorescence intensity was measured using freshly prepared 1× H19 dye, which was prepared by diluting 100× H19 dye with 10 mM tris-HCl and 10 mM NaCl (pH 7.0). […] In the decatenation inhibition assay, the change in fluorescence intensity was monitored using the 1× fluorescence dye after diluting the 20× dye with water. The reaction solution eluted from the column was mixed with 150 μl of 1× fluorescence dye. The fluorescence intensity for both assays was lastly detected at 535 nm using an excitation wavelength of 485 nm. […]

[2] = for the free guanidine group, not the whole compound; cited from earlier work
LPS = experiment: Fluorescence-based binding assay; conditions: compound 1× MIC; LPS 0 to 2.5 μg/ml
Procedure: Changes in the fluorescence emission spectrum or intensity were assessed for compound XT17 with and without the presence of targeted proteins. The fluorescent properties of compound XT17 (excitation wavelength of 350 nm and emission wavelength of 440 nm) were measured using a fluorescent plate reader upon binding to the targets. […] The changes in the emission from a constant concentration of fluorescent compound were monitored after adding increasing concentrations of LTA or LPS. All measurements were repeated three times with duplicates each time.

P. aeruginosa ATCC 9027 [3] = experiment: MIC, broth microdilution; assay type: cell-based; conditions: Pseudomonas aeruginosa, ATCC9027; 24-hour incubation, MHB
How it was run: (§3)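 CLSI method; MHB; compound 0.39–100 μg/ml, 2-fold series; DMSO <0.5% final; inoculum 1 × 10^6 cells/ml; 24 h, 37°C; OD600 read; n = 3 runs in duplicate.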

S. aureus ATCC 29213 = experiment: MIC, broth microdilution; assay type: cell-based; conditions: Staphylococcus aureus, ATCC29213, 24 h, 24-hour incubation, MHB; read-out: MIC90 S. aureus ATCC 29213
How it was run: as §3

A. baumannii R2889 = experiment: MIC, broth microdilution; assay type: cell-based; conditions: Acinetobacter baumannii, 24-hour incubation, MHB
How it was run: as §3

MRSA NCTC 10442 = experiment: MIC, broth microdilution; assay type: cell-based; conditions: Staphylococcus aureus; 24-hour incubation, MHB; read-out: MIC90 MRSA NCTC 10442
How it was run: as §3

A. baumannii ATCC 17978 = experiment: MIC, broth microdilution; assay type: cell-based; conditions: Acinetobacter baumannii, ATCC17978; 24-hour incubation, MHB
How it was run: as §3

K. pneumonia ATCC 10031 = experiment: MIC, broth microdilution; assay type: cell-based; conditions: Klebsiella pneumoniae, ATCC10031; 24-hour incubation, MHB
How it was run: as §3

MRSA N315 = experiment: MIC, broth microdilution; assay type: cell-based; conditions: Staphylococcus aureus, 24-hour incubation, MHB, read-out: MIC90 MRSA N315
How it was run: as §3

K. pneumonia ATCC 14581 = experiment: MIC, broth microdilution; assay type: cell-based; conditions: Klebsiella pneumoniae, ATCC14581; 24-hour incubation, MHB
How it was run: as §3

P. aeruginosa ATCC 9027 [4] = experiment: Serial passage resistance induction; assay type: cell-based, Pseudomonas aeruginosa; conditions: 20-day passages at 0.5× MIC
Procedure: The bacteria were grown in a medium containing 0.5× MIC of each compound to prepare the bacterial suspension for the next MIC determination. The MICs were then recorded after incubation at 37°C for 24 hours. Daily passages were continued until the initial MIC increased by more than fourfold. The stability of acquired resistance was investigated by MIC determination and repeated for 20 days.

[5] = In vitro cytotoxicity (CC50); assay type: cell-based; conditions: human, mouse, HepG2 cells and mouse fibroblast NCTC clone 929 cells; mammalian cells, CCK-8; read-out: concentration of cytotoxicity 50% (CC50)
Procedure: Cytotoxicity of the compound tested was assessed by CCK-8 assays as previously described ([71]). […] Following a 24-hour incubation, 10 μl of CCK-8 reagent was added to each well and incubated for 1 hour. The absorbance at 450 nm was measured by a microplate reader. All measurements were repeated three times with duplicates each time.

E. coli DNA gyrase = molecular target: T2, E. coli DNA gyrase (Escherichia coli, UniProt P0AES4+P0AES6); experiment: DNA gyrase supercoiling inhibition assay; assay type: biochemical
T2 construct: purchased ProFoldin (Worcester, MA)
Procedure: as §1, §2

T2 sequence (P0AES4 whole entry, one chain of several): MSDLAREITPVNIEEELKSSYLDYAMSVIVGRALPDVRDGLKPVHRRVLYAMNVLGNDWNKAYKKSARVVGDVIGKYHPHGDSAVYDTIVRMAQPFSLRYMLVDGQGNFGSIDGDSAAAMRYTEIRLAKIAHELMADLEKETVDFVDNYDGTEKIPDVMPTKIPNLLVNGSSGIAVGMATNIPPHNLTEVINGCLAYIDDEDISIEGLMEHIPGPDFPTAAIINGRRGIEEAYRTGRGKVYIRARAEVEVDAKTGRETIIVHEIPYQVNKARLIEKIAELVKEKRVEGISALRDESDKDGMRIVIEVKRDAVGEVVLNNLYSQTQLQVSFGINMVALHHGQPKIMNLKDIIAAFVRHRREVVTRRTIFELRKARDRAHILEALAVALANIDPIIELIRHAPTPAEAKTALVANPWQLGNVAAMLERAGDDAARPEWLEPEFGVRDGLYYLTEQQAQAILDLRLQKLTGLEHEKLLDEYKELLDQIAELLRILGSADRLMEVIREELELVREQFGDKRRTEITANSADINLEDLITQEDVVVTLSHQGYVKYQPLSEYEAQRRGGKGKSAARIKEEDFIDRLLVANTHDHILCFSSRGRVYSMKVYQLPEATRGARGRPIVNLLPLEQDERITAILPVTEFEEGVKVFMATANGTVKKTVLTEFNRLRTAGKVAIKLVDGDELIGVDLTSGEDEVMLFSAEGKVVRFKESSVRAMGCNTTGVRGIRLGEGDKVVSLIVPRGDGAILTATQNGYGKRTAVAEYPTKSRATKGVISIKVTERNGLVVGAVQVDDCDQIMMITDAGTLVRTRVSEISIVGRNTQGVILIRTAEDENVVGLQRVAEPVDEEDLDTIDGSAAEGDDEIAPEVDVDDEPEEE
T1 sequence (P20083 whole entry): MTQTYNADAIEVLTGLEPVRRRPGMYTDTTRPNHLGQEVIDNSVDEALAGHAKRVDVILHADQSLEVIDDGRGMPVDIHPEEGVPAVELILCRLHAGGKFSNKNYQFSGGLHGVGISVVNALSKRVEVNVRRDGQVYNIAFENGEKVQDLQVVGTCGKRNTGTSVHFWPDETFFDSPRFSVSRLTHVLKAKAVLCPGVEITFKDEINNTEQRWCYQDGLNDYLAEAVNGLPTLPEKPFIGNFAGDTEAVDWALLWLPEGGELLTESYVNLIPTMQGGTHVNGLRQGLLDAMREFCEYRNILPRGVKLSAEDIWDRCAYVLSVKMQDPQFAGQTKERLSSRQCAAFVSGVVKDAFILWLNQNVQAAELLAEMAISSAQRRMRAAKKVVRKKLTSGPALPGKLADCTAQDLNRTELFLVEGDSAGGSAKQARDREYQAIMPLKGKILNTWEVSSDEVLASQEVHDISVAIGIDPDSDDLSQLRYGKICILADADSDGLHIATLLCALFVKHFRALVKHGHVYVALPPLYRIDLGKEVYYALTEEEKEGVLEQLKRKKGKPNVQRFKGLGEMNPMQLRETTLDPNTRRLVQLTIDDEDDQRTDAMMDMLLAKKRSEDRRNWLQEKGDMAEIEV
T1 sequence (P0AFI2 whole entry): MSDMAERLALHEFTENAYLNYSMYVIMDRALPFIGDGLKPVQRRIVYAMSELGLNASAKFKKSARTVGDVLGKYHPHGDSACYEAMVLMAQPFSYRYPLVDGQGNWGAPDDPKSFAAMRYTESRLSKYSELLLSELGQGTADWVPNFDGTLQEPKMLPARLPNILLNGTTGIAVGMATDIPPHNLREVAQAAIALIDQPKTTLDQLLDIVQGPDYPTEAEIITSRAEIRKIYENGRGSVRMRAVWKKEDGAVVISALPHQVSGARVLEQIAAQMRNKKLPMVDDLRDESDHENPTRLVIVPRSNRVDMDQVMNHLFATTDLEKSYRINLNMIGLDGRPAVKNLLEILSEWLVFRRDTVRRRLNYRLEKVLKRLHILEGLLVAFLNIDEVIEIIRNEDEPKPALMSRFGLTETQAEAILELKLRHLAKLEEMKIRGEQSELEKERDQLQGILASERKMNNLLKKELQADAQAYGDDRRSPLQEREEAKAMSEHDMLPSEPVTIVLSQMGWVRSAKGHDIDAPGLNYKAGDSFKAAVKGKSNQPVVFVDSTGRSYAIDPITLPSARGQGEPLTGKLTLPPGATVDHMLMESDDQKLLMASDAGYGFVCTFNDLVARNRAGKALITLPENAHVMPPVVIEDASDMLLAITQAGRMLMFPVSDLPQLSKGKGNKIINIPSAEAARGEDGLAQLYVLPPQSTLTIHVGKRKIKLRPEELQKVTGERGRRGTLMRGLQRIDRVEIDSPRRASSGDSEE

CC(C)=CCOc1cc(OCCCNC(=N)N)cc2oc3cc(OCCCNC(=N)N)ccc3c(=O)c12 [XT17]
Inhibition of topoisomerase IV (%) [1]: 36.93% | pKa [2]: 12.48 | fluorescence emission of compound upon binding to LPS (LPS): decreased in a concentration-dependent manner | MIC90 (P. aeruginosa ATCC 9027 [3]): 3.12 µg/mL (≈ 6.12 µM) | MIC90 (S. aureus ATCC 29213): 0.39 µg/mL (≈ 0.764 µM) | MIC90 (A. baumannii R2889): 50 µg/mL (≈ 97.9 µM) | MIC90 (MRSA NCTC 10442): 0.39 µg/mL (≈ 0.764 µM) | MIC90 (A. baumannii ATCC 17978): 25 µg/mL (≈ 49 µM) | MIC90 (K. pneumonia ATCC 10031): 6.25 µg/mL (≈ 12.2 µM) | MIC90 (MRSA N315): 0.39 µg/mL (≈ 0.764 µM) | MIC90 (K. pneumonia ATCC 14581): 12.5 µg/mL (≈ 24.5 µM) | increase in MIC values during passages (P. aeruginosa ATCC 9027 [4]): no more than fourfold increase | CC50 at 24 h [5]: > 50 µg/mL | Inhibition of DNA gyrase (%) (E. coli DNA gyrase; 1× MIC): 81.45 ± 1.33% | inhibitory effect on bacterial DNA gyrase in vitro (E. coli DNA gyrase; concentration not stated (Discussion)): ~ 90%
